Assay results: the supplement of paper PMC10307832

What was measured:
Assay in all cases: relative viability (nuclei count vs DMSO), 5 days (fraction); higher = more cells survive
LU99A = system: LU99A
Summary of the method: (§1)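 Five library-drug doses in √10 steps were combined with a fixed anchor-drug dose, or a single drug was given alone, by pin tool to lung cancer cell lines in 1536-well plates the day after seeding. Nuclei were stained and counted after 5 days. Relative viability is the nuclei count in treated wells over that in vehicle wells, taken as the median of duplicate plates.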

NCI-H1792 = system: NCI-H1792
Summary of the method: as §1

NCI-H1651 = system: NCI-H1651
Summary of the method: as §1

HCC-44 = system: HCC-44
Summary of the method: as §1

NCI-H1666 = system: NCI-H1666
Summary of the method: as §1

NCI-H1755 = system: NCI-H1755
Summary of the method: as §1

NCI-H1650 = system: NCI-H1650
Summary of the method: as §1

BEN = system: BEN
Summary of the method: as §1

NCI-H2087 = system: NCI-H2087
Summary of the method: as §1

PC-14 = system: PC-14
Summary of the method: as §1

NCI-H1993 = system: NCI-H1993
Summary of the method: as §1

COR-L23 = system: COR-L23
Summary of the method: as §1

NCI-H520 = system: NCI-H520
Summary of the method: as §1

NCI-H1355 = system: NCI-H1355
Summary of the method: as §1

NCI-H1437 = system: NCI-H1437
Summary of the method: as §1

NCI-H460 = system: NCI-H460
Summary of the method: as §1

LXF-289 = system: LXF-289
Summary of the method: as §1

NCI-H1563 = system: NCI-H1563
Summary of the method: as §1

CAL-12T = system: CAL-12T
Summary of the method: as §1

NCI-H2085 = system: NCI-H2085
Summary of the method: as §1

`Cc1csc(=NC2CCCCC2)n1/N=C/c1ccc(O)c(O)c1O` [MIM1] + CC(C)C[C@H](NC(=O)[C@H](Cc1ccccc1)NC(=O)c1cnccn1)B(O)O [Bortezomib] (partner 0.002 µM) was tested, and the relative viability (LU99A; first compound 0.2 µM) was 1.08, the relative viability (LU99A; first compound 0.6325 µM) was 1.08 and the relative viability (LU99A; first compound 2 µM) was 1.1. The relative viability (LU99A; first compound 6.325 µM) was 0.987, the relative viability (LU99A; first compound 20 µM) was 0.341 and the relative viability (NCI-H1792; first compound 0.2 µM) was 0.852. It also gave a relative viability (NCI-H1792; first compound 0.6325 µM) of 0.921, a relative viability (NCI-H1792; first compound 2 µM) of 0.922 and a relative viability (NCI-H1792; first compound 6.325 µM) of 0.452. It also gave a relative viability (NCI-H1792; first compound 20 µM) of 0.851, a relative viability (NCI-H1651; first compound 0.2 µM) of 0.92 and a relative viability (NCI-H1651; first compound 0.6325 µM) of 0.823. The relative viability (NCI-H1651; first compound 2 µM) was 0.875, the relative viability (NCI-H1651; first compound 6.325 µM) was 0.887 and the relative viability (NCI-H1651; first compound 20 µM) was 0.685. It also gave a relative viability (HCC-44; first compound 0.2 µM) of 0.879, a relative viability (HCC-44; first compound 0.6325 µM) of 0.816 and a relative viability (HCC-44; first compound 2 µM) of 0.84. The relative viability (HCC-44; first compound 6.325 µM) was 0.446, the relative viability (HCC-44; first compound 20 µM) was 0.141 and the relative viability (NCI-H1666; first compound 0.2 µM) was 0.863. For the same molecule, the relative viability (NCI-H1666; first compound 0.6325 µM) was 0.916, the relative viability (NCI-H1666; first compound 2 µM) was 0.722 and the relative viability (NCI-H1666; first compound 6.325 µM) was 0.568. It also gave a relative viability (NCI-H1666; first compound 20 µM) of 0.249, a relative viability (NCI-H1755; first compound 0.2 µM) of 0.954 and a relative viability (NCI-H1755; first compound 0.6325 µM) of 0.949. It also gave a relative viability (NCI-H1755; first compound 2 µM) of 0.893, a relative viability (NCI-H1755; first compound 6.325 µM) of 0.776 and a relative viability (NCI-H1755; first compound 20 µM) of 0.377. For the same molecule, the relative viability (NCI-H1650; first compound 0.2 µM) was 0.263, the relative viability (NCI-H1650; first compound 0.6325 µM) was 0.204 and the relative viability (NCI-H1650; first compound 2 µM) was 0.188. The relative viability (NCI-H1650; first compound 6.325 µM) was 0.212, the relative viability (NCI-H1650; first compound 20 µM) was 0.165 and the relative viability (BEN; first compound 0.2 µM) was 0.719. It also gave a relative viability (BEN; first compound 0.6325 µM) of 1.01, a relative viability (BEN; first compound 2 µM) of 0.929 and a relative viability (BEN; first compound 6.325 µM) of 0.735. The relative viability (BEN; first compound 20 µM) was 0.183, the relative viability (NCI-H2087; first compound 0.2 µM) was 0.753 and the relative viability (NCI-H2087; first compound 0.6325 µM) was 0.743. It also gave a relative viability (NCI-H2087; first compound 2 µM) of 0.666, a relative viability (NCI-H2087; first compound 6.325 µM) of 0.586 and a relative viability (NCI-H2087; first compound 20 µM) of 0.498. The relative viability (PC-14; first compound 0.2 µM) was 0.751, the relative viability (PC-14; first compound 0.6325 µM) was 0.882 and the relative viability (PC-14; first compound 2 µM) was 0.779. It also gave a relative viability (PC-14; first compound 6.325 µM) of 0.692, a relative viability (PC-14; first compound 20 µM) of 0.192 and a relative viability (NCI-H1993; first compound 0.2 µM) of 1.18. It also gave a relative viability (NCI-H1993; first compound 0.6325 µM) of 1.03, a relative viability (NCI-H1993; first compound 2 µM) of 1.11 and a relative viability (NCI-H1993; first compound 6.325 µM) of 0.774. It also gave a relative viability (NCI-H1993; first compound 20 µM) of 0.473, a relative viability (COR-L23; first compound 0.2 µM) of 1.02 and a relative viability (COR-L23; first compound 0.6325 µM) of 1.04. For the same molecule, the relative viability (COR-L23; first compound 2 µM) was 0.969, the relative viability (COR-L23; first compound 6.325 µM) was 0.659 and the relative viability (COR-L23; first compound 20 µM) was 0.418. For the same molecule, the relative viability (NCI-H520; first compound 0.2 µM) was 0.721, the relative viability (NCI-H520; first compound 0.6325 µM) was 0.353 and the relative viability (NCI-H520; first compound 2 µM) was 0.684. The relative viability (NCI-H520; first compound 6.325 µM) was 0.401, the relative viability (NCI-H520; first compound 20 µM) was 0.184 and the relative viability (NCI-H1355; first compound 0.2 µM) was 1.26. For the same molecule, the relative viability (NCI-H1355; first compound 0.6325 µM) was 0.978, the relative viability (NCI-H1355; first compound 2 µM) was 1.22 and the relative viability (NCI-H1355; first compound 6.325 µM) was 0.871. For the same molecule, the relative viability (NCI-H1355; first compound 20 µM) was 0.916, the relative viability (NCI-H1437; first compound 0.2 µM) was 0.441 and the relative viability (NCI-H1437; first compound 0.6325 µM) was 0.427. For the same molecule, the relative viability (NCI-H1437; first compound 2 µM) was 0.536, the relative viability (NCI-H1437; first compound 6.325 µM) was 0.221 and the relative viability (NCI-H1437; first compound 20 µM) was 0.112. The relative viability (NCI-H460; first compound 0.2 µM) was 1.12, the relative viability (NCI-H460; first compound 0.6325 µM) was 1.26 and the relative viability (NCI-H460; first compound 2 µM) was 0.604. It also gave a relative viability (NCI-H460; first compound 6.325 µM) of 0.467, a relative viability (NCI-H460; first compound 20 µM) of 0.0328 and a relative viability (LXF-289; first compound 0.2 µM) of 0.986. For the same molecule, the relative viability (LXF-289; first compound 0.6325 µM) was 0.791, the relative viability (LXF-289; first compound 2 µM) was 1.03 and the relative viability (LXF-289; first compound 6.325 µM) was 0.826. The relative viability (LXF-289; first compound 20 µM) was 0.634, the relative viability (NCI-H1563; first compound 0.2 µM) was 0.894 and the relative viability (NCI-H1563; first compound 0.6325 µM) was 0.96. The relative viability (NCI-H1563; first compound 2 µM) was 0.744, the relative viability (NCI-H1563; first compound 6.325 µM) was 0.563 and the relative viability (NCI-H1563; first compound 20 µM) was 0.465. It also gave a relative viability (CAL-12T; first compound 0.2 µM) of 1.01, a relative viability (CAL-12T; first compound 2 µM) of 1.04 and a relative viability (CAL-12T; first compound 6.325 µM) of 0.867. The relative viability (CAL-12T; first compound 20 µM) was 0.429, the relative viability (NCI-H2085; first compound 0.2 µM) was 1.08 and the relative viability (NCI-H2085; first compound 0.6325 µM) was 0.994. It also gave a relative viability (NCI-H2085; first compound 2 µM) of 0.986, a relative viability (NCI-H2085; first compound 6.325 µM) of 0.952 and a relative viability (NCI-H2085; first compound 20 µM) of 0.989.
